Each structure is given as a SMILES string.

Among the data in patent US8293729B2 (Boehringer Ingelheim International GmbH, priority 2009, dated 2012) are activation and EC50 values, retold here.

One assay concerns the target T1, human GPR119 receptor (Homo sapiens, UniProt Q8TDV5, S329A/T327A).
T1 construct: N-terminal leader […]; expressed in transfected cells
T1 sequence (Q8TDV5 with tags, fused parts or gaps T327A/S329A): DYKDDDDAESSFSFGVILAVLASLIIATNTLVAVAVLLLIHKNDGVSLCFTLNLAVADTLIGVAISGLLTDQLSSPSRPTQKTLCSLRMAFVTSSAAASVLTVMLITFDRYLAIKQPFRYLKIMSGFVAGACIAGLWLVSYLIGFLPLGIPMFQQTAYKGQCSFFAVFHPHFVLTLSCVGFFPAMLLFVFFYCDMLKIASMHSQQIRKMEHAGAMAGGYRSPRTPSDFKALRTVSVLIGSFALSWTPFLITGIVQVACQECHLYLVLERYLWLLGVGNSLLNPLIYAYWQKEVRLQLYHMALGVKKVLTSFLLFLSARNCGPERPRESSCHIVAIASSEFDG
Kind of assay: cAMP assay (LANCE cAMP-384) in HEK293 cells stably expressing mutant human GPR119 receptor. The class given is cell-based. Conditions: HEK293, 20 min; at 10 μM; printed in EC50 column of the 36th table; read-out: stimulation in % at 10 μM. As for the experimental part: Quantitative detection of cAMP accumulation from cells expressing human GPR119 receptor was achieved using Perkin Elmer's LANCE cAMP-384 Kit (Cat#AD0264) according to the manufacturer's protocol. Briefly, HEK293 cells stably expressing a mutant form of the human GPR119 receptor (Methionine 1 replaced with the amino acid sequence […] (SEQ ID NO: 1), and T327 & S329 changed to alanines) were grown to 50-70% confluency in cell culture media (DMEM, 10% heat inactivated Fetal Bovine Serum, 50 I.U./mL penicillin, 50 μg/mL streptomycin, 10 mM HEPES, 20 μg/mL G418 Sulfate). On the day of the assay, GPR119 stable HEK293 cells were lifted from the tissue culture plate and 1000 cells/well were incubated along with various concentrations of test compounds for 20 min at 37° C. Detection Buffer (50mM HEPES, 10mM calcium chloride, 0.35% Triton X-100, 1 mg/mL BSA) containing cAMP-specific antibody was then added to all wells and allowed to equilibrate in the dark for 10 minutes at room temperature. Upon equilibration, Detection Buffer containing europium-labeled cAMP tracer complex was added to all wells and allowed to react for 1 hour at room temperature. After 1 hour, bound europium-labeled cAMP tracer was measured using a Perkin Elmer ViewLux. The quantity of cAMP generated in each well was derived from a standard curve. EC50 was determined using nonlinear regression analysis of the cAMP values over a range of agonist concentration (12 points spanning the range from 30 μM to 100pM).
For some compounds for which no EC50 value could be determined, the efficacy is provided at a single concentration (10 μM) yielding % stimulation values.
`CC(CCN1CCC(ON=C2CCN(c3ccc(S(C)(=O)=O)cc3F)CC2)CC1)c1ccccc1` (centres unmarked) [Example 66-24]: the activation at 10 µM stood at 53%.

The same assay, now with this note: cAMP accumulation, HEK293 cells stably expressing mutant human GPR119; read-out: EC50.
For the compound `CC(C)OC(=O)N1CCC(ON=C2CCN(c3nc(Cl)c(CO)nc3Cl)CC2)CC1` [Example 56-1, 4-[1-(3,6-Dichloro-5-hydroxymethyl-pyrazin-2-yl)-piperidin-4-ylideneaminooxy]-piperidine-1-carboxylic acid isopropyl ester], the EC50 turned out to be 35 nM.
On to `CC(C)OC(=O)N1CCC(ON=C2CCN(c3cc(F)c(-c4cccnc4)cc3F)CC2)CC1` [Example 27-4], for which the EC50 amounted to 182 nM.
As for `CC(C)OC(=O)N1CCC(ON=C2CCN(c3cc(F)c(CN4CCN(C)C4=O)cc3F)CC2)CC1` [Example 15-2], the EC50 came out at 282 nM.
Same read-out and setting: with `CC(C)OC(=O)N1CCC(ON=C2CCN(c3cc(F)c(-n4cncn4)cc3F)CC2)CC1` [Example 22-4] the figure was 33 nM.
For `CC(C)OC(=O)N1CCC(ON=C2CCN(c3ccc(C=O)cc3F)CC2)CC1` [Example 2-22], the EC50 was determined as 318 nM.
As for `CC(C)OC(=O)N1CCC(ON=C2CCN(c3cc(F)c(-c4nccn4C)cc3F)CC2)CC1` [Example 27-16], the EC50 turned out to be 5550 nM.
For `Cc1ccn(Cc2cc(F)c(N3CCC(=NOC4CCN(C(=O)OC(C)C)CC4)CC3)cc2F)n1` [Example 14-9], the EC50 was 257 nM.
In the case of `CC(C)OC(=O)N1CCC(ON=C2CCN(c3cc(F)c(CNS(N)(=O)=O)cc3F)CC2)CC1` [Example 17-1], the EC50 came out at 312 nM.
Still for that read-out and setting: in the case of `CC(C)OC(=O)N1CCC(ON=C2CCN(c3c(C(=O)O)ccnc3Cl)CC2)CC1` [Example 2-59] it was above 10000 nM; in that of `CC(C)OC(=O)N1CCC(ON=C2CCN(c3cc(F)c(-c4cnc(N)nc4)cc3F)CC2)CC1` [Example 27-15], 516 nM; in that of `CC(C)OC(=O)N1CCC(ON=C2CCN(c3nc(F)c(F)cc3F)CC2)CC1` [Example 2-75], 453 nM.
Same read-out and setting: with `CCS(=O)(=O)NCc1cc(F)c(N2CCC(=NOC3CCN(C(=O)OC(C)C)CC3)CC2)cc1F` [Example 16-6] the figure was 113 nM; with `CC(=O)OCc1cc(F)c(N2CCC(=NOC3CCN(C(=O)OC(C)C)CC3)CC2)cc1F` [Example 11-1, 4-[1-(4-acetoxymethyl-2,5-difluoro-phenyl)-piperidin-4-ylideneaminooxy]-piperidine-1-carboxylic acid isopropyl ester], 67 nM.
As to `CC(C)OC(=O)N1CCC(ON=C2CCN(c3cc(F)c(C(C)O)cc3F)CC2)CC1` (centres unmarked) [Example 50-1, 4-{1-[2,5-Difluoro-4-(1-hydroxy-ethyl)-phenyl]-piperidin-4-ylideneaminooxy}-piperidine-1-carboxylic acid isopropyl ester], the EC50 came to 48 nM.
Same read-out and setting: with `CC(=O)Nc1cc(F)c(N2CCC(=NOC3CCN(C(=O)OC(C)C)CC3)CC2)cc1F` [Example 35-1, 4-[1-(4-Acetylamino-2,5-difluoro-phenyl)-piperidin-4-ylideneaminooxy]-piperidine-1-carboxylic acid isopropyl ester] the figure was 17 nM.
Take `Cc1cc(N2CCC(=NOC3CCN(C(=O)OC(C)C)CC3)CC2)ccn1` [Example 2-6]: the EC50 was found to be 1480 nM.
Turning to `CC(C)OC(=O)N1CCC(ON=C2CCN(c3ccncc3)CC2)CC1` [Example 2-9], the EC50 was above 10000 nM.
On the same count and under the same terms, in the case of `CC(C)OC(=O)NCc1cc(F)c(N2CCC(=NOC3CCN(C(=O)OC(C)C)CC3)CC2)cc1F` [Example 16-7] it was 134 nM; in that of `CC(C)OC(=O)N1CCC(ON=C2CCN(c3ncnc4ccsc34)CC2)CC1` [Example 2-15], 4780 nM.

Staying with this assay, now noted: the 15th table; read-out: EC50.
As for `CC(C)OC(=O)N1CCC(ON=C2CCN(c3cc(F)c(C(=O)N4CCCC(CN5CCCCC5)C4)cc3F)CC2)CC1` (centres unmarked) [Example 29-56], the EC50 turned out to be 133 nM.
In the case of `CC(C)OC(=O)N1CCC(ON=C2CCN(c3cc(F)c(C(=O)NCCC4CCNCC4)cc3F)CC2)CC1` [Example 29-32], the EC50 stood at 73 nM.

The assay is the same for the next values; noted with them: the 19th table; unit inferred; read-out: EC 50.
As for `CCc1cnc(N2CCC(ON=C3CCN(c4cc(F)c(C(=O)N5CCC[C@H]5CNC)cc4F)CC3)CC2)nc1` [Example 29-134], the EC50 came to 437 nM.
Consider `CCc1cnc(N2CCC(ON=C3CCN(c4cc(F)c(C(=O)N5CCC[C@H]5CN)cc4F)CC3)CC2)nc1` [Example 29-133], for which the EC50 came to 164 nM.
`CCc1cnc(N2CCC(ON=C3CCN(c4cc(F)c(C(=O)N5CC[C@H](N)C5)cc4F)CC3)CC2)nc1` [Example 29-119]: the EC50 is 75 nM.
With `CCc1cnc(N2CCC(ON=C3CCN(c4cc(F)c(C(=O)N5CCCC(CN)C5)cc4F)CC3)CC2)nc1` (centres unmarked) [Example 29-124], the EC50 came out at 55 nM.
Turning to `CCc1cnc(N2CCC(ON=C3CCN(c4cc(F)c(C(=O)NCC5CCCN5)cc4F)CC3)CC2)nc1` (centres unmarked) [Example 29-121], the EC50 is 139 nM.
The same measure, in the same setting: in the case of `CCc1cnc(N2CCC(ON=C3CCN(c4cc(F)c(C(=O)N5CCCCC5CN)cc4F)CC3)CC2)nc1` (centres unmarked) [Example 29-131] it was 64 nM.
Still for that read-out and setting: in the case of `CCc1cnc(N2CCC(ON=C3CCN(c4cc(F)c(C(=O)N5CCC(CN)CC5)cc4F)CC3)CC2)nc1` [Example 29-125] it was 168 nM.

Still in this assay, the particulars now being: the 28th table; read-out: EC50.
With `CC(C)OC(=O)N1CCC(ON=C2CCN(c3ncc(-n4cncn4)cc3F)CC2)CC1` [Example 51-1, 4-(3′-Fluoro-5′-[1,2,4]triazol-1-yl-2,3,5,6-tetrahydro-[1,2]bipyridinyl-4-ylideneaminooxy)-piperidine-1-carboxylic acid isopropyl ester], the EC50 stood at 327 nM.

Still in this assay, the particulars now being: the 32nd table; read-out: EC50.
As to `CS(=O)(=O)c1ccc(N2CCC(=NOC3CCN(c4ncc(Br)cc4F)CC3)CC2)c(F)c1` [Example 63-25], the EC50 is 195 nM.
Turning to `CS(=O)(=O)c1ccc(N2CCC(=NOC3CCN(c4ccnc(Cl)n4)CC3)CC2)c(F)c1` [Example 63-5], the EC50 is above 10000 nM.

The same assay, now with this note: the 33rd table; read-out: EC50.
Regarding `CC(C)[C@@H](N)COC(=O)N1CCC(ON=C2CCN(c3ccc(S(C)(=O)=O)cc3F)CC2)CC1` [Example 64-44], the EC50 was above 10000 nM.
In the case of `CS(=O)(=O)c1ccc(N2CCC(=NOC3CCN(C(=O)OCCn4cccc4)CC3)CC2)c(F)c1` [Example 64-18], the EC50 was 461 nM.

The assay is the same for the next values; noted with them: the 34th table, compounds 65-1 to 65-24; read-out: EC50.
For `CS(=O)(=O)c1ccc(N2CCC(=NOC3CCN(C(=O)c4ccc(F)cc4)CC3)CC2)c(F)c1` [Example 65-22], the EC50 was determined as 132 nM.
With `CC(C)S(=O)(=O)N1CCC(ON=C2CCN(c3ccc(S(C)(=O)=O)cc3F)CC2)CC1` [Example 65-16], the EC50 was above 10000 nM.
Same read-out and setting: with `CC(C)NC(=O)CN1CCC(ON=C2CCN(c3ccc(S(C)(=O)=O)cc3F)CC2)CC1` [Example 65-4] the figure was above 10000 nM.

The assay is the same for the next values; noted with them: the 36th table, compounds 66-1 to 66-51; read-out: EC50.
Turning to `Cc1nc[nH]c1CN1CCC(ON=C2CCN(c3ccc(S(C)(=O)=O)cc3F)CC2)CC1` [Example 66-9], the EC50 was above 10000 nM.
In the case of `Cn1cc(CN2CCC(ON=C3CCN(c4ccc(S(C)(=O)=O)cc4F)CC3)CC2)cn1` [Example 66-10], the EC50 is above 10000 nM.
On to `Cn1cc(Cl)c(CN2CCC(ON=C3CCN(c4ccc(S(C)(=O)=O)cc4F)CC3)CC2)n1` [Example 66-5], for which the EC50 is above 10000 nM.
`CS(=O)(=O)c1ccc(N2CCC(=NOC3CCN(Cc4ccccc4Cl)CC3)CC2)c(F)c1` [Example 66-17]: the EC50 turned out to be 661 nM.

The same assay, now with this note: the 37th table, compounds 66-52 to 66-64; read-out: EC50.
Regarding `CS(=O)(=O)c1cc(F)c(N2CCC(=NOC3CCN(Cc4ccc(Cl)cc4)CC3)CC2)cc1F` [Example 66-56], the EC50 was found to be 50 nM.

Still in this assay, the particulars now being: the 43rd table, compounds 75-1 to 75-38; read-out: EC50.
As to `CC(C)OC(=O)N1CCC(ON=C2CCN(c3cc(F)c(CC(=O)N4CCC(N)CC4)cc3F)CC2)CC1` [Example 75-12], the EC50 was 92 nM.
As for `CC(C)OC(=O)N1CCC(ON=C2CCN(c3cc(F)c(CC(=O)NCC4CCNCC4)cc3F)CC2)CC1` [Example 75-26], the EC50 worked out at 236 nM.

The same assay, now with this note: the 44th table, compounds 77-1 to 77-14; read-out: EC50.
In the case of `CCc1cnc(N2CCC(ON=C3CCN(c4cc(F)c(CC(=O)NC5CCNCC5)cc4F)CC3)CC2)nc1` [Example 77-10], the EC50 was found to be 20 nM.
On to `CCc1cnc(N2CCC(ON=C3CCN(c4cc(F)c(CC(=O)N5CCC[C@@H](N)C5)cc4F)CC3)CC2)nc1` [Example 77-8], for which the EC50 came to 30 nM.
As to `CCc1cnc(N2CCC(ON=C3CCN(c4cc(F)c(CC(=O)N(C)C)cc4F)CC3)CC2)nc1` [Example 77-3], the EC50 came out at 18 nM.
